From patent US6503881B2 (priority 1996, dated 2003)
Read-outs that look alike come from different tables or passages of the source.

Columns and labels:
[1] = system: microorganisms with acquired resistance
[2] = system: inherently resistant microorganisms
[3] = E. coli ECO3, pair Mupirocin / MBI 11D18CN
[4] = S. aureus 19 MRSA, pair Piperacillin / MBI 11D18CN

W R I W K P K W R L P K W [MBI 11D18CN]
Peptide MIC + Tobramycin ([1]; A. baumannii ABI001): 4 µg/mL
Tobramycin MIC + Peptide ([1]; A. baumannii ABI001): 4 µg/mL
Peptide MIC Alone ([1]; A. baumannii ABI001 (7. Tobramycin)): 64 µg/mL
Peptide MIC + Tobramycin ([1]; A. baumannii ABI002): 0.5 µg/mL
Tobramycin MIC + Peptide ([1]; A. baumannii ABI002): 4 µg/mL
Peptide MIC Alone ([1]; A. baumannii ABI002 (7. Tobramycin)): 16 µg/mL
Peptide MIC + Piperacillin ([1]; A. calcoaceticus 3): 8 µg/mL
Piperacillin MIC + Peptide ([1]; A. calcoaceticus 3): 8 µg/mL
Peptide MIC Alone ([1]; A. calcoaceticus 3 (6. Piperacillin)): 32 µg/mL
Peptide MIC + Piperacillin ([1]; E. cloacae 9): 16 µg/mL
Piperacillin MIC + Peptide ([1]; E. cloacae 9): 16 µg/mL
Peptide MIC Alone ([1]; E. cloacae 9 (6. Piperacillin)): 64 µg/mL
Peptide MIC + Piperacillin ([1]; E. cloacae 10): 16 µg/mL
Piperacillin MIC + Peptide ([1]; E. cloacae 10): 16 µg/mL
Peptide MIC Alone ([1]; E. cloacae 10 (6. Piperacillin)): 32 µg/mL
Peptide MIC + Vancomycin ([1]; E. faecalis EFS003): 32 µg/mL
Vancomycin MIC + Peptide ([1]; E. faecalis EFS003): 2 µg/mL
Peptide MIC Alone ([1]; E. faecalis EFS003 (8. Vancomycin)): 64 µg/mL
Peptide MIC + Vancomycin ([1]; E. faecalis EFS007): 8 µg/mL
Vancomycin MIC + Peptide ([1]; E. faecalis EFS007): 1 µg/mL
Peptide MIC Alone ([1]; E. faecalis EFS007 (8. Vancomycin)): 16 µg/mL
Peptide MIC + Vancomycin ([1]; E. faecalis EFS009): 4 µg/mL
Vancomycin MIC + Peptide ([1]; E. faecalis EFS009): 2 µg/mL
Peptide MIC Alone ([1]; E. faecalis EFS009 (8. Vancomycin)): 8 µg/mL
Peptide MIC + Vancomycin ([1]; E. faecium EFM004): 4 µg/mL
Vancomycin MIC + Peptide ([1]; E. faecium EFM004): 0.5 µg/mL
Peptide MIC Alone ([1]; E. faecium EFM004 (8. Vancomycin)): 8 µg/mL
Peptide MIC + Vancomycin ([1]; E. faecium EFM007): 4 µg/mL
Vancomycin MIC + Peptide ([1]; E. faecium EFM007): 0.5 µg/mL
Peptide MIC Alone ([1]; E. faecium EFM007 (8. Vancomycin)): 8 µg/mL
Peptide MIC + Vancomycin ([1]; E. faecium EFM009): 4 µg/mL
Vancomycin MIC + Peptide ([1]; E. faecium EFM009): 1 µg/mL
Peptide MIC Alone ([1]; E. faecium EFM009 (8. Vancomycin)): 8 µg/mL
Peptide MIC + Vancomycin ([1]; E. faecium EFM010): 4 µg/mL
Vancomycin MIC + Peptide ([1]; E. faecium EFM010): 1 µg/mL
Peptide MIC Alone ([1]; E. faecium EFM010 (8. Vancomycin)): 8 µg/mL
Peptide MIC + Piperacillin ([1]; P. aeruginosa 23): 4 µg/mL
Piperacillin MIC + Peptide ([1]; P. aeruginosa 23): 64 µg/mL
Peptide MIC Alone ([1]; P. aeruginosa 23 (6. Piperacillin)): 64 µg/mL
Peptide MIC + Tobramycin ([1]; P. aeruginosa PA032): 32 µg/mL
Tobramycin MIC + Peptide ([1]; P. aeruginosa PA032): 4 µg/mL
Peptide MIC Alone ([1]; P. aeruginosa PA032 (7. Tobramycin)): 64 µg/mL
Ciprofloxacin MIC + Peptide ([1]; P. aeruginosa PA77): 0.5 µg/mL
Peptide MIC + Ciprofloxacin ([1]; P. aeruginosa PA77): 32 µg/mL
Peptide MIC Alone ([1]; P. aeruginosa PA77 (3. Ciprofloxacin)): 128 µg/mL
Peptide MIC ([1]; S. aureus MRSA 9, pair Mupirocin / MBI 11D18CN): 2 µg/mL
Peptide MIC + Tobramycin ([1]; S. epidermidis SE080): 1 µg/mL
Tobramycin MIC + Peptide ([1]; S. epidermidis SE080): 4 µg/mL
Peptide MIC Alone ([1]; S. epidermidis SE080 (7. Tobramycin)): 2 µg/mL
Peptide MIC + Piperacillin ([1]; S. maltophilia 2): 8 µg/mL
Piperacillin MIC + Peptide ([1]; S. maltophilia 2): 16 µg/mL
Peptide MIC Alone ([1]; S. maltophilia 2 (6. Piperacillin)): 32 µg/mL
Peptide MIC + Piperacillin ([1]; S. maltophilia 14): 8 µg/mL
Piperacillin MIC + Peptide ([1]; S. maltophilia 14): 16 µg/mL
Peptide MIC Alone ([1]; S. maltophilia 14 (6. Piperacillin)): 16 µg/mL
Peptide MIC + Tobramycin ([1]; S. maltophilia SMA027): 16 µg/mL
Tobramycin MIC + Peptide ([1]; S. maltophilia SMA027): 4 µg/mL
Peptide MIC Alone ([1]; S. maltophilia SMA027 (7. Tobramycin)): >128 µg/mL
Peptide MIC + Tobramycin ([1]; S. maltophilia SMA029): 8 µg/mL
Tobramycin MIC + Peptide ([1]; S. maltophilia SMA029): 2 µg/mL
Peptide MIC Alone ([1]; S. maltophilia SMA029 (7. Tobramycin)): 32 µg/mL
Peptide MIC + Piperacillin ([1]; S. marcescens 1): 4 µg/mL
Piperacillin MIC + Peptide ([1]; S. marcescens 1): 8 µg/mL
Peptide MIC Alone ([1]; S. marcescens 1 (6. Piperacillin)): >128 µg/mL
FIC ([1]; peptide + Ciprofloxacin, P. aeruginosa PA77): 0.50
FIC ([1]; peptide + Piperacillin, A. calcoaceticus 3): 0.38
FIC ([1]; peptide + Piperacillin, E. cloacae 9): 0.31
FIC ([1]; peptide + Piperacillin, E. cloacae 10): 0.56
FIC ([1]; peptide + Piperacillin, P. aeruginosa 23): 0.56
FIC ([1]; peptide + Piperacillin, S. maltophilia 2): 0.50
FIC ([1]; peptide + Piperacillin, S. maltophilia 14): 0.63
FIC ([1]; peptide + Piperacillin, S. marcescens 1): 0.14
FIC ([1]; peptide + Tobramycin, A. baumannii ABI001): 0.31
FIC ([1]; peptide + Tobramycin, A. baumannii ABI002): 9.53
FIC ([1]; peptide + Tobramycin, P. aeruginosa PA032): 11.00
FIC ([1]; peptide + Tobramycin, S. epidermidis SE080): 0.75
FIC ([1]; peptide + Tobramycin, S. maltophilia SMA027): 9.19
FIC ([1]; peptide + Tobramycin, S. maltophilia SMA029): 0.27
FIC ([1]; peptide + Vancomycin, E. faecalis EFS003): 0.75
FIC ([1]; peptide + Vancomycin, E. faecalis EFS007): 0.63
FIC ([1]; peptide + Vancomycin, E. faecalis EFS009): 0.75
FIC ([1]; peptide + Vancomycin, E. faecium EFM004): 0.50
FIC ([1]; peptide + Vancomycin, E. faecium EFM007): 0.50
FIC ([1]; peptide + Vancomycin, E. faecium EFM009): 0.52
FIC ([1]; peptide + Vancomycin, E. faecium EFM010): 0.59
FIC [2]: 0.56
MIC Alone [2]: 32 µg/mL
MIC in combination [2]: 16 µg/mL
FIC [2, 3]: 0.26
MIC Alone [2, 3]: 4 µg/mL
MIC in combination [2, 3]: 1 µg/mL
FIC [2, 4]: 0.52
MIC Alone [2, 4]: 4 µg/mL
MIC in combination [2, 4]: 2 µg/mL
